pIC50: −log10 of the molar value.
Target: T1, recombinant human GR (Homo sapiens, UniProt P04150)
T1 construct: purchased Panvera/Invitrogen P2812 (kit P2893)
T1 sequence (P04150 1-777): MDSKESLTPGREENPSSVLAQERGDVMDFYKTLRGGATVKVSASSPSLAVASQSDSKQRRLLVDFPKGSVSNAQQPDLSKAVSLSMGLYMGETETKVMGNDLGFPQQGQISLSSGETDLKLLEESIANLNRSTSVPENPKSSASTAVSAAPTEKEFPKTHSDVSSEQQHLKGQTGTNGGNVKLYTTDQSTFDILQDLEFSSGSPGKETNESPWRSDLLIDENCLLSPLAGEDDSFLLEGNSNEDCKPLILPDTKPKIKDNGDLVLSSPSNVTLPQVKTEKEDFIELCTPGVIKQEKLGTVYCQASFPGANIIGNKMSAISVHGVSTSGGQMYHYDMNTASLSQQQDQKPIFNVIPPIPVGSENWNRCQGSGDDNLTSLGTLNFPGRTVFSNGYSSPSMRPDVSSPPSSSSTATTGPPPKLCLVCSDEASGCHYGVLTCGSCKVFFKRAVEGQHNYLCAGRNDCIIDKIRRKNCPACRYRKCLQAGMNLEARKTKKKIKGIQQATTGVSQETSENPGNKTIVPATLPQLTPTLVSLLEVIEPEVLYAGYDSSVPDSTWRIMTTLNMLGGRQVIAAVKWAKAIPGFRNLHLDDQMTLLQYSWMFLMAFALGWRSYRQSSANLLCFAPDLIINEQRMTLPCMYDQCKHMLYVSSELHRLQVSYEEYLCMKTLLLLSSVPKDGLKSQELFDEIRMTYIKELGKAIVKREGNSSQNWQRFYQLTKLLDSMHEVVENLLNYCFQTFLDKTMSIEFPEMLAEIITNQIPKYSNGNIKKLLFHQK
Experiment: Human Glucocorticoid Receptor (GR) Assay, fluorescence polarization
Type: binding
Details: GS Red tracer, incubated 2 h at r.t., XLfit model 205, read-out: GRhuFL_FP_v2 Mean IC50
Summary of the method: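 After 2 h dark incubation at r.t., polarization reported displacement of the GS Red tracer from recombinant GR, in buffer with phosphate, molybdate, EDTA, DTT and Stabilizing Peptide. Controls: dexamethasone (100%) and DMSO (0%).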

pIC50 | Structure (SMILES)
8.36 | Cc1ccc([C@@H](Oc2ccc3c(cnn3-c3ccc(F)cc3)c2)[C@H](C)NC(=O)C2(C)CC2)cc1F [Example 213, N-[(1R,2S)-1-(3-fluoro-4-methyl-phenyl)-1-[1-(4-fluorophenyl)indazol-5-yl]oxy-propan-2-yl]-1-methyl-cyclopropane-1-carboxamide]
8.35 | C[C@H](NC(=O)C1(C)CC1)[C@H](Oc1ccc2c(cnn2-c2ccc(F)cc2)c1)c1cccc(F)c1 [Example 214, N-[(1R,2S)-1-(3-fluorophenyl)-1-[1-(4-fluorophenyl)indazol-5-yl]oxy-propan-2-yl]-1-methyl-cyclopropane-1-carboxamide]
8.36 | Cc1ccc(C)c([C@@H](Oc2ccc3c(cnn3-c3ccc(F)cc3)c2)[C@H](C)NC(=O)C2(C)CC2)c1 [Example 215, N-[(1R,2S)-1-(2,5-dimethylphenyl)-1-[1-(4-fluorophenyl)indazol-5-yl]oxy-propan-2-yl]-1-methyl-cyclopropane-1-carboxamide]
8.33 | Cc1ccc([C@@H](Oc2ccc3c(cnn3-c3ccc(F)cc3)c2)[C@H](C)NC(=O)C2(C)CC2)c(C)c1 [Example 216, N-[(1R,2S)-1-(2,4-dimethylphenyl)-1-[1-(4-fluorophenyl)indazol-5-yl]oxy-propan-2-yl]-1-methyl-cyclopropane-1-carboxamide]
8.41 | COc1ccc([C@@H](Oc2ccc3c(cnn3-c3ccc(F)cc3)c2)[C@H](C)NC(=O)C2(C)CC2)cc1F [Example 217, N-[(1R,2S)-1-(3-fluoro-4-methoxy-phenyl)-1-[1-(4-fluorophenyl)indazol-5-yl]oxy-propan-2-yl]-1-methyl-cyclopropane-1 carboxamide]
8.48 | C[C@H](NC(=O)C1(C)CC1)[C@H](Oc1ccc2c(cnn2-c2ccc(F)cc2)c1)c1cccc(Cl)c1 [Example 218, N-[(1R,2S)-1-(3-chlorophenyl)-1-[1-(4-fluorophenyl)indazol-5-yl]oxy-propan-2-yl]-1-methyl-cyclopropane-1-carboxamide]
8.55 | Cc1cc(F)ccc1[C@@H](Oc1ccc2c(cnn2-c2ccc(F)cc2)c1)[C@H](C)NC(=O)C1(C)CC1 [Example 219, N-[(1R,2S)-1-(4-fluoro-2-methyl-phenyl)-1-[1-(4-fluorophenyl)indazol-5-yl]oxy-propan-2-yl]-1-methyl-cyclopropane-1-carboxamide]
8.38 | Cc1ccc(F)cc1[C@@H](Oc1ccc2c(cnn2-c2ccc(F)cc2)c1)[C@H](C)NC(=O)C1(C)CC1 [Example 220, N-[(1R,2S)-1-(5-fluoro-2-methyl-phenyl)-1-[1-(4-fluorophenyl)indazol-5-yl]oxy-propan-2-yl]-1-methyl-cyclopropane-1-carboxamide]
8.36 | COc1c(C)cc([C@@H](Oc2ccc3c(cnn3-c3ccc(F)cc3)c2)[C@H](C)NC(=O)C2(C)CC2)cc1C [Example 221, N-[(1R,2S)-1-[1-(4-fluorophenyl)indazol-5-yl]oxy-1-(4-methoxy-3,5-dimethyl-phenyl)propan-2-yl]-1-methyl-cyclopropane-1-carboxamide]
8.46 | C[C@H](NC(=O)C1(C)CC1)[C@H](Oc1ccc2c(cnn2-c2ccc(F)cc2)c1)c1ccc(Cl)cc1 [Example 222, N-[(1R,2S)-1-(4-chlorophenyl)-1-[1-(4-fluorophenyl)indazol-5-yl]oxy-propan-2-yl]-1-methyl-cyclopropane-1-carboxamide]
8.41 | C[C@H](NC(=O)C1(C)CC1)[C@H](Oc1ccc2c(cnn2-c2ccc(F)cc2)c1)c1cc(F)cc(Cl)c1 [Example 223, N-[(1R,2S)-1-(3-chloro-5-fluoro-phenyl)-1-[1-(4-fluorophenyl)indazol-5-yl]oxy-propan-2-yl]-1-methyl-cyclopropane-1-carboxamide]
8.24 | Cc1cc(C)c([C@@H](Oc2ccc3c(cnn3-c3ccc(F)cc3)c2)[C@H](C)NC(=O)C2(C)CC2)cc1C [Example 224, N-[(1R,2S)-1-[1-(4-fluorophenyl)indazol-5-yl]oxy-1-(2,4,5-trimethylphenyl)propan-2-yl]-1-methyl-cyclopropane-1-carboxamide]
8.32 | Cc1cccc([C@@H](Oc2ccc3c(cnn3-c3ccc(F)cc3)c2)[C@H](C)NC(=O)C2(C)CC2)c1 [Example 225, N-[(1R,2S)-1-[1-(4-fluorophenyl)indazol-5-yl]oxy-1-(3-methylphenyl)propan-2-yl]-1-methyl-cyclopropane-1-carboxamide]
8.14 | C[C@H](NC(=O)C1(C)CC1)[C@H](Oc1ccc2c(cnn2-c2ccc(F)cc2)c1)c1ccc(C(C)(C)C)cc1 [Example 226, N-[(1R,2S)-1-[1-(4-fluorophenyl)indazol-5-yl]oxy-1-(4-tert-butylphenyl)propan-2-yl]-1-methyl-cyclopropane-1 carboxamide]
8.51 | COc1ccccc1[C@@H](Oc1ccc2c(cnn2-c2ccc(F)cc2)c1)[C@H](C)NC(=O)C1(C)CC1 [Example 227, N-[(1R,2S)-1-[1-(4-fluorophenyl)indazol-5-yl]oxy-1-(2-methoxyphenyl)propan-2-yl]-1-methyl-cyclopropane-1-carboxamide]
8.10 | C[C@H](NC(=O)C(C)(F)F)[C@H](Oc1ccc2c(cnn2-c2ccc(F)cc2)c1)c1ccc(F)c(F)c1 [Example 228, N-[(1R,2S)-1-(3,4-difluorophenyl)-1-[1-(4-fluorophenyl)indazol-5-yl]oxy-propan-2-yl]-2,2-difluoro-propanamide]
8.26 | Cc1ccc([C@@H](Oc2ccc3c(cnn3-c3ccc(F)cc3)c2)[C@H](C)NC(=O)C(C)(F)F)cc1F [Example 229, 2,2-difluoro-N-[(1R,2S)-1-(3-fluoro-4-methyl-phenyl)-1-[1-(4-fluorophenyl)indazol-5-yl]oxy-propan-2-yl]propanamide]
8.32 | C[C@H](NC(=O)C(C)(F)F)[C@H](Oc1ccc2c(cnn2-c2ccc(F)cc2)c1)c1cccc(F)c1 [Example 230, 2,2-difluoro-N-[(1R,2S)-1-(3-fluorophenyl)-1-[1-(4-fluorophenyl)indazol-5-yl]oxy-propan-2-yl]propanamide]
8.29 | COc1ccc([C@@H](Oc2ccc3c(cnn3-c3ccc(F)cc3)c2)[C@H](C)NC(=O)C(C)(F)F)cc1F [Example 231, 2,2-difluoro-N-[(1R,2S)-1-(3-fluoro-4-methoxy-phenyl)-1-[1-(4-fluorophenyl)indazol-5-yl]oxy-propan-2-yl]propanamide]
8.27 | C[C@H](NC(=O)C(C)(F)F)[C@H](Oc1ccc2c(cnn2-c2ccc(F)cc2)c1)c1cccc(Cl)c1 [Example 232, N-[(1R,2S)-1-(3-chlorophenyl)-1-[1-(4-fluorophenyl)indazol-5-yl]oxy-propan-2-yl]-2,2-difluoro-propanamide]
8.21 | Cc1cc(F)ccc1[C@@H](Oc1ccc2c(cnn2-c2ccc(F)cc2)c1)[C@H](C)NC(=O)C(C)(F)F [Example 233, 2,2-difluoro-N-[(1R,2S)-1-(4-fluoro-2-methyl-phenyl)-1-[1-(4-fluorophenyl)indazol-5-yl]oxy-propan-2-yl]propanamide]
8.19 | Cc1ccc(F)cc1[C@@H](Oc1ccc2c(cnn2-c2ccc(F)cc2)c1)[C@H](C)NC(=O)C(C)(F)F [Example 234, 2,2-difluoro-N-[(1R,2S)-1-(5-fluoro-2-methyl-phenyl)-1-[1-(4-fluorophenyl)indazol-5-yl]oxy-propan-2-yl]propanamide]
